Results published in patent US11279744B2, “Neuropeptide Y fragment capable of releasing hematopoietic stem cells into blood and treating osteoporosis” (Kyungpook National University Industry-Academic Cooperation …, priority 2017, dated 2022).
“Also recorded” adds a separate entry of the source. Non-standard residues stand in square brackets, D forms with d. No end group written: not given here.

Legend:
[1] = tested on: adhesion factors of hematopoietic stem cell in bone marrow (Sdf-1a, KitI, Angpt1); experiment: expression of adhesion factors in bone marrow of osteoporosis animal models, real-time quantitative PCR; type: in vivo, mouse; settings: OVX mice, 50 μg/kg i.p. twice a day for 4 weeks; bone marrow 1 hour after last administration
Protocol: (§1) To make an osteoporosis model, 10-18 12 weeks old female mice per group underwent ovarian ablation. A week later, 50 μg/kg of NPY(21-28), NPY D^25(21-28), NPY D^26(21-28), NPY D^25,26(21-28), Osteopep2, NPY and 100 μl of PBS(Gibco) were intraperitoneally administered twice a day for 4 weeks at 12 hour intervals. Alendronate (Sigma), used as a competitive drug, was intraperitoneally administered once a week for 4 weeks at a dose of 50 μg/kg. As a control group, only Sham model of osteoporosis was performed by subcutaneous dissection of female mouse. Mice were placed in experimental groups using the Block randomization method, and all mouse experiments were approved through the Kyungpook National University Institutional Animal Care and Use Committee.
(§2) Real-time quantitative PCR was used to measure expression levels of hematopoietic stem cell adhesion factors (Sdf-1a, KitI, Angpt1) present in osteoblasts. Total RNA was extracted from cell eluate and bone marrow cells using the RNeasy Plus mini kit (Qiagen, Korea, Ltd), and cDNAs were synthesized from 5 μg total RNA using a kit in Clontech (Mountain View, Calif.). In addition, using a Corbett research RG-6000 real-time PCR instrument, Real-time quantitative PCR was performed at 95° C. for 10 minutes; at 95° C., for 10 seconds; at 58° C., for 15 seconds; at 72° C. for 20 seconds as one cycle, and 40 cycles were repeated.
In order to investigate whether the NPY (21-28) of the present invention affects the blood release of myelopoiesis stem cells in the animal models of osteoporosis, the following experiments were carried out according to the methods of Examples 1-1, 1-3, 1-4, and 1-5. In order to make animal models of osteoporosis, 12 weeks old C57BL/6 female mice were subjected to ovarian ablation for 10 to 18 animals in each group. […] Weight change was measured weekly, and bone marrow and blood were collected one hour after the last dose at 4 weeks, and the release of myelopoiesis progenitor and stem cells into blood was analyzed. […]

[2] = tested on: hematopoietic stem cell adhesion factors (Sdf-1a, KitI, Angpt1) present in osteoblasts; experiment: expression of hematopoietic stem cell adhesion factors in osteoblasts, real-time quantitative PCR; type: cell-based, mouse; settings: for expression levels of Sdf-1a, KitI, and Angpt1 in osteoblasts: 10 nM peptide for 3 days, compared to osteoblasts (control) not treated with peptides, fold change
Protocol: All mice used in the experiment were 6 to 8 weeks old mice, C57BL/6 mice, and purchased from Jackson Laboratory (Bar Harbor, Me., USA). NPY (21-28) (SEQ ID NO: 1), NPY (24-31) (SEQ ID NO: 2), NPY (29-36) (SEQ ID NO: 3), NPY D25 (21-28) (SEQ ID NO: 4), NPY D26 (21-28) (SEQ ID NO: 5), NPY D25, 26 (21-28) (SEQ ID NO: 6), NPY (21-36) (Osteopep2) (SEQ ID NO: 7) were prepared from Anygen. Full length NPY (SEQ ID NO: 8) was purchased from Bachem. 10 nM of each peptide was diluted in each medium and injected for in vitro experiments. The NPY D^25(21-28) refers to a peptide in which arginine, the fifth amino acid of the amino acid sequence of NPY (21-28), is modified to D-type, the NPY D^26(21-28) refers to a peptide in which the sixth amino acid histidine is modified to D-form, and the D^25,26(21-28) refers to a peptide in which both the fifth and sixth amino acids are modified to D-form, respectively.
Four to six weeks old C57BL/6 mice were sacrificed after anesthesia, and then tibias and femurs were dissected. Bone marrow was harvested from tibias and femurs and single cell suspensions were obtained using a 40 μm cell strainer (Becton-Dickinson LAβware, Franklin Lakes, N.J.). Approximately […] were dispensed into 75-cm 2 flasks containing mesenchymal stem cells Stimulatory Supplements with antibiotics (Stem Cell Technologies, Inc) and MesenCult™ MSCBasal medium. The cells were incubated for 1 week and further incubated for 3 weeks with StemXVivo Osteogenic/Adipogenic Base Media (R & D systems) supplemented with StemXVivo Osteogenic supplement (20×) and penicillin-streptomycin (100×) for differentiation into osteoblasts.
as §2
First, bone marrow was harvested from 4 to 6 weeks old C57BL6 mice, and mesenchymal stem cells (BM-MSCs) in bone marrow were collected, and then cultured for 3 weeks in osteoblast differentiation induction medium for the differentiation into osteoblasts. After 28 days, each peptide was treated with 10 nM for 3 days, and bone cells were collected and examined for expression levels of three adhesion factors by real-time quantitative PCR. Osteopep2 and its parent NPY were used as positive controls.

[3] = weight change in animal models of osteoporosis (OVX); type: in vivo, mouse; settings: OVX mice, 50 μg/kg intraperitoneally twice a day for 4 weeks; weighed weekly; vs PBS group that gained weight
Protocol: as §1
In order to investigate whether the NPY (21-28) of the present invention affects the blood release of myelopoiesis stem cells in the animal models of osteoporosis, the following experiments were carried out according to the methods of Examples 1-1, 1-3, 1-4, and 1-5. In order to make animal models of osteoporosis, 12 weeks old C57BL/6 female mice were subjected to ovarian ablation for 10 to 18 animals in each group. One week later, 50 μg/kg of NPY (21-28) and 100 μl of PBS (Gibco) were intraperitoneally administered twice a day for 4 weeks at 12 hour intervals. As a control group, mice that underwent only subcutaneous incisions in normal mice were used. Weight change was measured weekly, and bone marrow and blood were collected one hour after the last dose at 4 weeks, and the release of myelopoiesis progenitor and stem cells into blood was analyzed. […]
In order to investigate the effect of NPY (21-28) of the present invention on weight gain induced by osteoporosis, body weight was measured once a week for a total of 4 weeks of NPY (21-28) injection. […]
In order to investigate the effects of NPY D^25(21-28), NPY D^26(21-28), and NPY D^25,26(21-28) of the present invention on weight gain induced by osteoporosis, body weight was measured once a week for a total of 4 weeks in which each peptide was injected.

Substance | expression levels of major adhesion factors Sdf-1a, KitI, and Angpt1 in bone marrow [1] | expression levels of Sdf-1a, KitI, and Angpt1 in osteoblasts [2] | weight change [3] | amount of Angpt1 expression in osteoblasts, compared with NPY (21-28) ([2]; 10 nM peptide, osteoblasts)
YSALRHYI [NPY (21-28)] | decreased | decreased | did not change in weight | 
NPY D^25(21-28): peptide in which arginine, the fifth amino acid of the amino acid sequence of NPY (21-28), is modified to D-type (YSAL[dR]HYI) | decreased; also recorded: generally superior to those of NPY | decreased | did not change in weight | 
NPY D^25,26(21-28): peptide in which both the fifth and sixth amino acids of NPY (21-28) are modified to D-form (YSAL[dR][dH]YI) | decreased; also recorded: generally superior to those of NPY | decreased | did not change in weight | further reduce the amount of Angpt1 expression than NPY (21-28)
